Measured values: patent US4515941A, “23-Demycinosyldesmycosin derivatives” (Toyo Jozo Kabushiki Kaisha, priority 1982, dated 1985)
Converted amounts (≈) assume the structure as drawn. Like-named read-outs stand apart in the source and are kept apart here.

Columns and labels:
Assay type in all cases: cell-based
[1] = system: Staphylococcus epidermis sp-al-1; assay: MIC, Staphylococcus epidermis sp-al-1
[2] = system: Sarcina lutea ATCC 9341; assay: MIC, Sarcina lutea ATCC 9341; conditions: Micrococcus luteus, ATCC9341
[3] = system: Proteus vulgaris OX19; assay: MIC, Proteus vulgaris OX19
[4] = system: Shigella sonnei E33; assay: MIC, Shigella sonnei E33
[5] = system: Streptococcus agalactiae 1020; assay: MIC, Streptococcus agalactiae 1020
[6] = system: Bacillus subtilis ATC 6633; assay: MIC, Bacillus subtilis ATC 6633
[7] = system: Streptococcus pyogenes N.Y.5; assay: MIC, Streptococcus pyogenes N.Y.5
[8] = system: Escherichia coli NIHJ-JC2; assay: MIC, Escherichia coli NIHJ-JC2; conditions: NIHJJC2
[9] = system: Pseudomonas aeruginosa IAM 1095; assay: MIC, Pseudomonas aeruginosa IAM 1095; conditions: IAM1095
[10] = system: Salmonella typhosa H901; assay: MIC, Salmonella typhosa H901; conditions: Salmonella enterica, TYPHOSA
[11] = system: Streptococcus faecalis 1501; assay: MIC, Streptococcus faecalis 1501
[12] = system: Klebsiella pneumoniae ATCC 10031; assay: MIC, Klebsiella pneumoniae ATCC 10031
[13] = system: Staphylococcus aureus ATCC 6538P; assay: MIC, Staphylococcus aureus ATCC 6538P; conditions: ATCC6538P
[14] = system: Staphylococcus aureus 0127; assay: MIC, Staphylococcus aureus 0127 (macrolide resistant); conditions: Staphylococcus aureus 0127; macrolide resistant bacteria A group; read-out: MIC
Text: (§1) *macrolide resistant bacteria A group (clinical isolates of erythromycin,
(§2) oleandomycin and 16membered macrolide antibiotic resistant strains.)

[15] = system: Streptococcus pyogenes 1022; assay: MIC, Streptococcus pyogenes 1022 (macrolide resistant); conditions: macrolide resistant bacteria A group
Text: as §1, §2

[16] = system: Corynebacterium diptheriae P.Y.8; assay: MIC, Corynebacterium diptheriae P.Y.8
[17] = system: Staphylococcus aureus MS353; assay: MIC, Staphylococcus aureus MS353
[18] = system: Staphylococcus aureus MS353 A0; assay: MIC, Staphylococcus aureus MS353 A0 (macrolide resistant); conditions: MS353A0, macrolide resistant bacteria A group
Text: as §1, §2

[19] = system: Staphylococcus aureus MS353 C36; assay: MIC, Staphylococcus aureus MS353 C36; conditions: MS353C36
[20] = system: Shigella flexineri type 3a; assay: MIC, Shigella flexineri type 3a; conditions: TYPE3A
[21] = system: Micrococcus flavus ATCC 10240; assay: MIC, Micrococcus flavus ATCC 10240; conditions: Micrococcus flavus, ATCC10240
[22] = system: Serratia marcescens; assay: MIC, Serratia marcescens
[23] = system: Salmonella enteritidis Gaertner; assay: MIC, Salmonella enteritidis Gaertner; conditions: Salmonella enterica, ENTERITIDIS
[24] = SPAL1, Staphylococcus epidermis sp-al-1, read-out: MIC
[25] = Proteus vulgaris OX19, read-out: MIC
[26] = Streptococcus agalactiae 1020, read-out: MIC
[27] = ATC6633, Bacillus subtilis ATC 6633, read-out: MIC
[28] = Pseudomonas aeruginosa IAM 1095, read-out: MIC
[29] = Enterococcus faecalis, Streptococcus faecalis 1501, read-out: MIC
[30] = ATCC10031, Klebsiella pneumoniae ATCC 10031, read-out: MIC
[31] = Streptococcus pyogenes 1022, read-out: MIC
[32] = Corynebacterium diptheriae P.Y.8, read-out: MIC
[33] = Staphylococcus aureus MS353, read-out: MIC

Row | Structure (SMILES) | MIC [1, 24] [µg/mL] | MIC [2] [µg/mL] | MIC [3, 25] [µg/mL] | MIC [4] [µg/mL] | MIC [5, 26] [µg/mL] | MIC [6, 27] [µg/mL] | MIC ([7]; read-out: MIC) [µg/mL] | MIC [8] [µg/mL] | MIC [9, 28] [µg/mL] | MIC [10] [µg/mL] | MIC [11, 29] [µg/mL] | MIC [12, 30] [µg/mL] | MIC ([13]; read-out: MIC) [µg/mL] | MIC [15, 31] [µg/mL] | MIC [16, 32] [µg/mL] | MIC [17, 33] [µg/mL] | MIC [18] [µg/mL] | also measured
1 | CCC1OC(=O)CC(O)C(C)C(OC2OC(C)C(O)C(N(C)C)C2O)C(CC=O)CC(C)C(=O)C=CC(C)=CC1COCc1ccccc1 (centres unmarked) [OCH 2 C6 H5, 23-O-benzyl-23-demycinosyldesmycosin] | ≤ 0.05 | ≤ 0.05 | 3.1 (≈ 4.51 µM) | 25 (≈ 36.3 µM) | ≤ 0.05 | ≤ 0.05 | ≤ 0.05 | 25 (≈ 36.3 µM) | 50 (≈ 72.7 µM) | 100 (≈ 145 µM) | 0.05 (≈ 0.0727 µM) | 6.3 (≈ 9.16 µM) | ≤ 0.05 | 3.1 (≈ 4.51 µM) | ≤ 0.05 | ≤ 0.05 | 50 (≈ 72.7 µM) | MIC [14]: 100 µg/mL (≈ 145 µM)
2 | CCC1OC(=O)CC(O)C(C)C(OC2OC(C)C(O)C(N(C)C)C2O)C(CC=O)CC(C)C(=O)C=CC(C)=CC1CSCCc1ccccc1 (centres unmarked) [S(CH2)2 C6 H5, 23-(2-phenylethyl)thio-23-demycinosyl-23-deoxydesmycosin] | ≤ 0.05 | ≤ 0.05 | 12.5 (≈ 17.4 µM) | 25 (≈ 34.8 µM) | ≤ 0.05 | 0.1 (≈ 0.139 µM) | ≤ 0.05 | 50 (≈ 69.6 µM) | > 100 | > 100 | 0.1 (≈ 0.139 µM) | 3.1 (≈ 4.32 µM) | 0.1 (≈ 0.139 µM) |  |  | 0.1 (≈ 0.139 µM) | 50 (≈ 69.6 µM) | MIC ([15]; Streptococcus pyogenes, 1022, Streptococcus pyogenes 1022): 25 µg/mL (≈ 34.8 µM)
3 | CCC1OC(=O)CC(O)C(C)C(OC2OC(C)C(O)C(N(C)C)C2O)C(CC=O)CC(C)C(=O)C=CC(C)=CC1CSc1ccccc1 (centres unmarked) [SC6 H5] | ≤ 0.05 | ≤ 0.05 | 12.5 (≈ 18.1 µM) | 50 (≈ 72.5 µM) | ≤ 0.05 | 0.1 (≈ 0.145 µM) | ≤ 0.05 | 50 (≈ 72.5 µM) | 100 (≈ 145 µM) | 50 (≈ 72.5 µM) | ≤ 0.05 | 1.6 (≈ 2.32 µM) | 0.1 (≈ 0.145 µM) | 25 (≈ 36.2 µM) | ≤ 0.05 | 0.1 (≈ 0.145 µM) | 25 (≈ 36.2 µM) | 
4 | CCC1OC(=O)CC(O)C(C)C(OC2OC(C)C(O)C(N(C)C)C2O)C(CC=O)CC(C)C(=O)C=CC(C)=CC1CSCc1ccccc1 (centres unmarked) [SCH2 C6 H5, 23-benzylthio-23-demycinosyl-23-deoxydesmycosin] | ≤ 0.05 | ≤ 0.05 | 6.3 (≈ 8.95 µM) | 25 (≈ 35.5 µM) | ≤ 0.05 | 0.1 (≈ 0.142 µM) | ≤ 0.05 | 50 (≈ 71 µM) | 100 (≈ 142 µM) | 50 (≈ 71 µM) | ≤ 0.05 | 1.6 (≈ 2.27 µM) | ≤ 0.05 |  | ≤ 0.05 | ≤ 0.05 | 50 (≈ 71 µM) | 
5 | CC[C@H]1OC(=O)C[C@@H](O)[C@H](C)[C@@H](O[C@@H]2O[C@H](C)[C@@H](O[C@H]3C[C@@](C)(O)[C@@H](O)[C@H](C)O3)[C@H](N(C)C)[C@H]2O)[C@@H](CC=O)C[C@@H](C)C(=O)/C=C/C(C)=C/[C@@H]1CO[C@@H]1O[C@H](C)[C@@H](O)[C@@H](OC)[C@H]1OC [TS, tylosin, reference compound] |  | ≤ 0.05 |  | > 100 |  |  |  |  |  | > 100 |  |  |  |  |  |  |  | MIC ([1]; Staphylococcus, SPAL1, Staphylococcus epidermis sp-al-1): 0.4 µg/mL (≈ 0.437 µM); MIC ([3]; Proteus vulgaris, OX19, Proteus vulgaris OX19): > 100 µg/mL; MIC ([5]; Streptococcus agalactiae 1020): 0.4 µg/mL (≈ 0.437 µM); MIC ([5]; Streptococcus agalactiae, 1020, Streptococcus agalactiae 1020): 0.2 µg/mL (≈ 0.218 µM); MIC ([6]; Bacillus subtilis, ATC6633, Bacillus subtilis ATC 6633): 0.2 µg/mL (≈ 0.218 µM); MIC [7]: 0.1 µg/mL (≈ 0.109 µM); MIC ([9]; Pseudomonas aeruginosa): > 100 µg/mL; MIC [19]: 0.4 µg/mL (≈ 0.437 µM); MIC ([11]; Enterococcus faecalis, 1501, Streptococcus faecalis 1501): 0.8 µg/mL (≈ 0.873 µM); MIC ([11]; Streptococcus faecalis 1501): 1.6 µg/mL (≈ 1.75 µM); MIC ([12]; Klebsiella pneumoniae ATCC 10031): 100 µg/mL (≈ 109 µM); MIC ([12]; Klebsiella pneumoniae, ATCC10031, Klebsiella pneumoniae ATCC 10031): 50 µg/mL (≈ 54.6 µM); MIC ([13]; Staphylococcus aureus): 0.8 µg/mL (≈ 0.873 µM); MIC ([16]; Corynebacterium, P.Y.8): ≤ 0.05 µg/mL; MIC [20]: 50 µg/mL (≈ 54.6 µM); MIC ([17]; Staphylococcus aureus, MS353, Staphylococcus aureus MS353): 0.8 µg/mL (≈ 0.873 µM); MIC [21]: ≤ 0.05 µg/mL; MIC [22]: > 100 µg/mL; MIC [23]: > 100 µg/mL
